Results published in patent publication US20110306597A1, “Nicotinamide Derivatives” (priority 2008, published 2011).

Target: human recombinant H-PGDS (Homo sapiens, UniProt O60760)
Assay: Fluorescence Intensity h-PGDS TBA Enzyme Assay
Format: biochemical
Conditions: 1:175,000 human recombinant H-PGDS, highest inhibitor concentration typically 1 μM
How it was run: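 Readout is PGH2 depletion: after a 42 s reaction with 5.0 μM PGH2 and 2.5 mM glutathione (pH 8.0 Tris, 10 min inhibitor preincubation), Fe(II) converts leftover PGH2 to MDA, which forms a fluorescent TBA complex. IC50s come from 11-point, 3-fold duplicate curves, 4-parameter fit.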

Chain of human recombinant H-PGDS (O60760 whole entry): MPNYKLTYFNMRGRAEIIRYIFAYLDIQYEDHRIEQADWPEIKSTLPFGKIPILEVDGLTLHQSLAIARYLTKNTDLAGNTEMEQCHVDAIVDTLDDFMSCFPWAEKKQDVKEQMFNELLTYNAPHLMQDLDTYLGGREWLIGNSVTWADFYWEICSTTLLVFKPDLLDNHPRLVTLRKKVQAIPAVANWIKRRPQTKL

Row | IC50 [nM] | Compound
1 | 3.54 | Cc1ccc2nc(CCNC(=O)c3ccc(-c4cccc(F)c4)nc3)cn2c1 [Example 1, 6-(3-Fluorophenyl)-N-[2-(6-methylimidazo[1,2-a]pyridin-2-yl)ethyl]nicotinamide]
2 | 18.7 | Cc1ccn(CCNC(=O)c2ccc(-c3cccc(F)c3)nc2)n1 [Example 92, 6-(3-Fluorophenyl)-N-[2-(3-methyl-1H-pyrazol-1-yl)ethyl]nicotinamide]
3 | 68.5 | O=C(NCC1CCCCO1)c1ccc(-c2cccc(F)c2)nc1 (centres unmarked) [Example 525, 6-(3-Fluorophenyl)-N-(tetrahydro-2H-pyran-2-ylmethyl)nicotinamide]
4 | 24.4 | CCOC(=O)CC(NC(=O)c1ccc(-c2ccccc2)nc1)c1ccccc1 (centres unmarked) [Example 394, Ethyl 3-phenyl-3-{[(6-phenylpyridin-3-yl)carbonyl]amino}propanoate]
5 | 117 | CC(C)N1CCC(CNC(=O)c2ccc(-c3cccc(F)c3)nc2)C1 (centres unmarked) [Example 12, 6-(3-Fluorophenyl)-N-[(1-isopropylpyrrolidin-3-yl)methyl]nicotinamide]
6 | ≥ 1000 | COC(=O)[C@H](Cc1ccc(Cl)cc1)NC(=O)c1ccc(-c2ccc(F)cc2)nc1 [Example 509, Methyl 4-chloro-N-{[6-(4-fluorophenyl)pyridin-3-yl]carbonyl}phenylalaninate]
7 | 12.9 | Cc1cccc(-c2ccc(C(=O)NC3CCOCC3)cn2)c1 [Example 252, 6-(3-Methylphenyl)-N-(tetrahydro-2H-pyran-4-yl)nicotinamide]
8 | 7.5 | CCCCCNC(=O)c1ccc(-c2ccccc2)nc1 [Example 381, N-Pentyl-6-phenylnicotinamide]
9 | 557 | COC(=O)CNC(=O)[C@H](C)NC(=O)c1ccc(-c2cccc(OC)c2)nc1 [Example 309, Methyl N-{[6-(3-methoxyphenyl)pyridin-3-yl]carbonyl}-L-alanylglycinate]
10 | 42.8 | O=C(NCCCN1CCOCC1)c1ccc(-c2cccc(F)c2)nc1 [Example 39, 6-(3-Fluorophenyl)-N-(3-morpholin-4-ylpropyl)nicotinamide]
11 | 11.7 | O=C(NCCc1cccs1)c1ccc(-c2cccc(F)c2)nc1 [Example 430, 6-(3-Fluorophenyl)-N-[2-(2-thienyl)ethyl]nicotinamide]
12 | 129 | CN1CCC(O)(CNC(=O)c2ccc(-c3cccc(F)c3)nc2)CC1 [Example 121, 6-(3-Fluorophenyl)-N-[(4-hydroxy-1-methylpiperidin-4-yl)methyl]nicotinamide]
13 | 377 | COc1cccc(-c2ccc(C(=O)NCCN3CCN(Cc4ccccc4)CC3)cn2)c1 [Example 295, N-[2-(4-Benzylpiperazin-1-yl)ethyl]-6-(3-methoxyphenyl)nicotinamide]
14 | 14.8 | CCc1nccn1CCCNC(=O)c1ccc(-c2cccc(F)c2)nc1 [Example 86, N-[3-(2-Ethyl-1H-imidazol-1-yl)propyl]-6-(3-fluorophenyl)nicotinamide]
15 | 37.1 | O=C(NCCN1CCOC1=O)c1ccc(-c2ccccc2)nc1 [Example 359, N-[2-(2-Oxo-1,3-oxazolidin-3-yl)ethyl]-6-phenylnicotinamide]
16 | 152 | CC(NC(=O)c1ccc(-c2ccc(F)cc2)nc1)c1ccccc1 (centres unmarked) [Example 265, 6-(4-Fluorophenyl)-N-(1-phenylethyl)nicotinamide]
17 | 672 | NC(CC(=O)NC(=O)c1ccc(-c2ccc(F)cc2)nc1)C1CC1 (centres unmarked) [Example 269, N-(3-Amino-3-cyclopropylpropanoyl)-6-(4-fluorophenyl)nicotinamide]
18 | 191 | CCOC(=O)CC(NC(=O)c1ccc(-c2cccc(OC)c2)nc1)c1ccc(OC)cc1 (centres unmarked) [Example 294, Ethyl 3-(4-methoxyphenyl)-3-({[6-(3-methoxyphenyl)pryidin-3-yl]carbonyl}amino) propanoate]

Row | IC50 [nM] | Compound
19 | 163 | CC(C)N1CCCC(CNC(=O)c2ccc(-c3cccc(F)c3)nc2)C1 (centres unmarked) [Example 116, 6-(3-Fluorophenyl)-N-[(1-isopropylpiperidin-3-yl)methyl]nicotinamide]
20 | 38.9 | CCC(NC(=O)c1ccc(-c2cccc(F)c2)nc1)c1nn[nH]n1 (centres unmarked) [Example 60, 6-(3-Fluorophenyl)-N-[1-(2H-tetrazol-5-yl)propyl]nicotinamide]
21 | ≥ 1000 | O=C(CNC(=O)c1ccc(-c2ccc(F)cc2)nc1)OCc1ccccc1 [Example 464, Benzyl N-{[6-(4-fluorophenyl)pyridin-3-yl]carbonyl}glycinate]
22 | 387 | COC(=O)[C@H](Cc1ccc(Cl)cc1)NC(=O)c1ccc(-c2cccc(OC)c2)nc1 [Example 306, Methyl 4-chloro-N-{[6-(3-methoxyphenyl)pyridin-3-yl]carbonyl}phenylalaninate]
23 | 17.3 | COCCN1C(=O)CCC1CCNC(=O)c1ccc(-c2cccc(F)c2)nc1 (centres unmarked) [Example 46, 6-(3-Fluorophenyl)-N-{2-[1-(2-methoxyethyl)-5-oxopyrrolidin-2-yl]ethyl}nicotinamide]
24 | 734 | O=C(NC1CCN(Cc2ccc(Cl)cc2)C1=O)c1ccc(-c2ccc(F)cc2)nc1 (centres unmarked) [Example 474, N-[1-(4-Chlorobenzyl)-2-oxopyrrolidin-3-yl]-6-(4-fluorophenyl)nicotinamide]
25 | 59 | O=C(NC1CCN(Cc2ccc(Cl)cc2)C1=O)c1ccc(-c2cccc(F)c2)nc1 (centres unmarked) [Example 431, N-[1-(4-Chlorobenzyl)-2-oxopyrrolidin-3-yl]-6-(3-fluorophenyl)nicotinamide]
26 | 12.1 | O=C(NCCN1CCCCC1)c1ccc(-c2cccc(F)c2)nc1 [Example 195, 6-(3-Fluorophenyl)-N-(2-piperidin-1-ylethyl)nicotinamide]
27 | 20.5 | CC(C)NC(=O)c1ccc(-c2cccc(F)c2)nc1 [Example 179, 6-(3-Fluorophenyl)-N-isopropylnicotinamide]
28 | 18.3 | COc1ccc2nc(CCNC(=O)c3ccc(-c4cccc(F)c4)nc3)[nH]c2c1 [Example 208, 6-(3-Fluorophenyl)-N-[2-(6-methoxy-1H-benzimidazol-2-yl)ethyl]nicotinamide]
29 | 52.7 | COC(=O)CC(NC(=O)c1ccc(-c2cccc(F)c2)nc1)c1cccnc1 (centres unmarked) [Example 171, Methyl 3-({[6-(3-fluorophenyl)pyridin-3-yl]carbonyl}amino)-3-pyridin-3-ylpropanoate]
30 | 8.3 | COc1ccc(CNC(=O)c2ccc(-c3ccccc3)nc2)cc1 [Example 519, N-(4-Methoxybenzyl)-6-phenylnicotinamide]
31 | 174 | N-[2-(Benzyloxy)ethyl]-5-chloro-6-(3-fluorophenyl)nicotinamide [Example 555]
32 | 46.8 | CSc1ccc(CNC(=O)c2ccc(-c3cccc(F)c3)nc2)cc1 [Example 412, 6-(3-Fluorophenyl)-N-[4-(methylthio)benzyl] nicotinamide]
33 | 11 | Cc1cc(C)nc(CCNC(=O)c2ccc(-c3cccc(F)c3)nc2)n1 [Example 143, N-[2-(4,6-Dimethylpyrimidin-2-yl)ethyl]-6-(3-fluorophenyl)nicotinamide]
34 | 2.63 | O=C(NCC1C(=O)Nc2ccccc21)c1ccc(-c2cc(F)cc(F)c2)nc1 (centres unmarked) [Example 568, 6-(3,5-Difluorophenyl)-N-[(2-oxo-2,3-dihydro-1H-indol-3-yl)methyl]nicotinamide]
35 | 345 | O=C(NCc1cccc(F)c1)c1ccc(-c2ccc(F)cc2)nc1 [Example 465, N-(3-Fluorobenzyl)-6-(4-fluorophenyl)nicotinamide]
